Reference: BindingDB's records for doi:10.1111/cbdd.12481 (University of Kwazulu-Nata, 2015)

Key:
[1] = molecular target: 72 kDa type IV collagenase (Homo sapiens, UniProt P08253); assay: MMP2 Inhibition Assay; details: pH 8.5; 25 °C
Experimental: The synthesized compounds were assayed for the inhibitory activities against MMP-2 in 96-well microtiter plates using succinylated gelatin as the substrate. The compound and enzyme were dissolved in sodium borate buffer (pH 8.5, 50 mM) and incubated at 37 °C for 30 min. The substrate was added and incubated at 37 °C for another 60 min. The 100% and blank groups were also carried out, in which the 100% group contained not compound and the blank group contained […]. Then, 0.03% picrylsulfonic acid solution was added and incubated at room temperature for additional 20 min. The resulting solutions were measured under 450 nm.

[2] = molecular target: Macrophage metalloelastase (Homo sapiens, UniProt P39900); assay: MMP12 Inhibition Assay; details: pH 8; 25 °C
Sequence of Macrophage metalloelastase (P39900 whole entry): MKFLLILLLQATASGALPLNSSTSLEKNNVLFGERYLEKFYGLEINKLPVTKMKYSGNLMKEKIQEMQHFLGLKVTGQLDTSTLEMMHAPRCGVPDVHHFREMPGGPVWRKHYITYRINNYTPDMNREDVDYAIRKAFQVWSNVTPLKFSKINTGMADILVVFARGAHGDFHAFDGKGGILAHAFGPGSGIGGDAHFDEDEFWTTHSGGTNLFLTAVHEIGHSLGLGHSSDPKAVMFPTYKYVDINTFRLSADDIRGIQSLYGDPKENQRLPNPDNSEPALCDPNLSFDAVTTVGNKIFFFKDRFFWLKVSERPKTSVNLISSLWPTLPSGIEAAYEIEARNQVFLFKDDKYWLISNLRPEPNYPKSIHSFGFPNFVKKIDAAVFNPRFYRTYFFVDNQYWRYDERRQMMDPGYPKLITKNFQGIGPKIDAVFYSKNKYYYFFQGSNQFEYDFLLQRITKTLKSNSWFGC
Experimental: The synthesized compounds were assayed for the inhibitory activities against MMP-12 in 96-well microtiter plates using thiopeptolide as the substrate. MMP-12 was diluted in Assay buffer (50 mM Tris pH7.5, 0.05% Brij-35, 10 mM CaCl2, 1 mM DTNB) to a concentration of 0.007 U/µL. The MMP-12 solution (44 µL) was premixed with 1 µL of inhibitors dissolved in DMSO in a 96-well plate, and the mixture was incubated for 20 min at room temperature. Then, 5 µL of 1 mM MMP chromogenic substrate (thiopeptolide) was added to the mixture, and the reaction mixture was incubated for 30-80 min at 37 °C. Reaction was terminated by adding 7 µL of 0.2 M EDTA (pH 8.0). The intensity of the color developed by the digested substrate was measuredat 405 nm.

Sequence of 72 kDa type IV collagenase (P08253 whole entry): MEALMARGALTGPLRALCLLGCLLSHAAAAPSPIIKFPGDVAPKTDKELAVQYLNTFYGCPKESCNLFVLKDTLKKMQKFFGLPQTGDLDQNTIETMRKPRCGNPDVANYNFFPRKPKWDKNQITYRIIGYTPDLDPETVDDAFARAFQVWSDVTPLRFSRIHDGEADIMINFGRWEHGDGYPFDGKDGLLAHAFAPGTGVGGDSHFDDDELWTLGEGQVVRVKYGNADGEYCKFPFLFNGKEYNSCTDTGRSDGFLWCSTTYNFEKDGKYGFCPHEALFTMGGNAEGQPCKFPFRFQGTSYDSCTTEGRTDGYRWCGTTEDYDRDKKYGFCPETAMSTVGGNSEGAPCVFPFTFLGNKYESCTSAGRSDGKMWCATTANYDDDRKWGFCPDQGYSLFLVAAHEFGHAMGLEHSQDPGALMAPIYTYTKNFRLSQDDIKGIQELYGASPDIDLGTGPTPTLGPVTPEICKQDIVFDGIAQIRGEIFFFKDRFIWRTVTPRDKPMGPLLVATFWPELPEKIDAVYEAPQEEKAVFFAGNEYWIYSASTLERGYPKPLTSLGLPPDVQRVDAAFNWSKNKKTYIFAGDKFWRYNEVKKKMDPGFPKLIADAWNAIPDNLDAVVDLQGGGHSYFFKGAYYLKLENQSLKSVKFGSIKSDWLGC

| SMILES | IC50 [1] | IC50 [2] |
| --- | --- | --- |
| O=C(NNC(=S)Nc1ccc(Cl)cc1)c1cc(Br)c(Br)[nH]1 [2-(4,5-Dibromo-1H-pyrrole-2-carbonyl)-N-(4-chlorophenyl)hydrazine carbothioamide (5e)] | 1.8 µM | 29 µM |
| O=C(NNC(=S)Nc1ccc([N+](=O)[O-])cc1)c1cc(Br)c(Br)[nH]1 [2-(4,5-Dibromo-1H-pyrrole-2-carbonyl)-N-(4-nitrophenyl)hydrazine carbothioamide (5c)] | 13.7 µM | 42.1 µM |
| Cn1c(C(=O)NNC(=S)Nc2ccccc2F)cc(Br)c1Br [2-(1-Methyl-4,5-dibromo-1H-pyrrole-2-carbonyl)-N-(2-fluorophenyl)hydrazine carbothioamide (5n)] | 8 µM | 43.1 µM |
| COc1cc(NC(=S)NNC(=O)c2cc(Br)c(Br)n2C)cc(OC)c1OC [2-(1-Methyl-4,5-dibromo-1H-pyrrole-2-carbonyl)-N-(3,4,5-trimethoxyphenyl) hydrazine carbothioamide (5t)] | 19.2 µM | 23.8 µM |
| Cn1c(C(=O)NNC(=O)Nc2ccco2)cc(Br)c1Br [2-(1-Methyl-4,5-dibromo-1H-pyrrole-2-carbonyl-N-(furan-2-yl))hydrazine carboxamide (4s)] | 60.3 µM | 84.2 µM |
